From PMC12638379, “An innovative approach to development of new pyrazolylquinolin-2-one hybrids as dual EGFR and BRAF^V600E inhibitors” (Molecular Diversity, 2025)
Like-named read-outs stand apart in the source and are kept apart here.

System: NCI 60 cancer cell lines
Test: NCI anticancer screening over a panel of 60 cancer cells, single concentration 10 µM
Format: cell-based, human
Details: Homo sapiens, read-out: % Growth Inhibition (GI %)
Method in brief: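 Primary single-dose screen at 10 µM over the NCI panel of 60 human tumour cell lines (leukemia, CNS, lung, colon, kidney, ovary, breast, prostate). The standard NCI Developmental Therapeutics Program protocol was used.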

## COc1ccc2[nH]c(=O)cc(-n3ncc(/C(C)=N/Nc4ccc(C(=O)O)cc4)c3C)c2c1 [Compound 4h, (E)-4-(2-(1-(1-(6-methoxy-2-oxo-1,2-dihydroquinolin-4-yl)-5-methyl-1H-pyrazol-4-yl)ethylidene)hydrazineyl)benzoic acid]
786-0, Renal cancer 786-0, 10 μM
  inhibition at 10 µM: < 5%
A498, Renal cancer A498, 10 μM
  inhibition at 10 µM: < 5%
A549, Non-small cell lung cancer A549/ATCC, 10 μM
  inhibition at 10 µM: < 5%
ACHN, Renal cancer ACHN, 10 μM
  inhibition at 10 µM: < 5%
BT-549, Breast cancer BT-549, 10 μM
  inhibition at 10 µM: < 5%
CAKI-1, Renal cancer CAKI-1, 10 μM
  inhibition at 10 µM: < 5%
CCRF-CEM, Leukemia CCRF-CEM, 10 μM
  inhibition at 10 µM: < 5%
COLO 205, Colon cancer COLO 205, 10 μM
  inhibition at 10 µM: < 5%
DU-145, Prostate cancer DU-145, 10 μM
  inhibition at 10 µM: < 5%
EKVX, Non-small cell lung cancer EKVX, 10 μM
  inhibition at 10 µM: < 5%
HCC 2998, Colon cancer HCC-2998, 10 μM
  inhibition at 10 µM: < 5%
HCT-15, Colon cancer HCT-15, 10 μM
  inhibition at 10 µM: < 5%
HCT-116, Colon cancer HCT-116, 10 μM
  inhibition at 10 µM: < 5%
HL-60, Leukemia HL-60(TB), 10 μM
  inhibition at 10 µM: < 5%
HOP-62, Non-small cell lung cancer HOP-62, 10 μM
  inhibition at 10 µM: < 5%
HOP-92, Non-small cell lung cancer HOP-92, 10 μM
  inhibition at 10 µM: 38.5%
HT-29, Colon cancer HT29, 10 μM
  inhibition at 10 µM: < 5%
Hs-578T, Breast cancer HS 578T, 10 μM
  inhibition at 10 µM: < 5%
IGROV-1, Ovarian cancer IGROV1, 10 μM
  inhibition at 10 µM: < 5%
K562, Leukemia K-562, 10 μM
  inhibition at 10 µM: < 5%
KM12, Colon cancer KM12, 10 μM
  inhibition at 10 µM: < 5%
LOX IMVI, Melanoma LOX IMVI, 10 μM
  inhibition at 10 µM: < 5%
Leukemia SR, 10 μM
  inhibition at 10 µM: < 5%
MCF7, Breast cancer MCF7, 10 μM
  inhibition at 10 µM: 5.52%
MDA-MB-231, Breast cancer MDA-MB-231/ATCC, 10 μM
  inhibition at 10 µM: 4.98%
MDA-MB-435, Melanoma MDA-MB-435, 10 μM
  inhibition at 10 µM: < 5%
MDA-MB-468, Breast cancer MDA-MB-468, 10 μM
  inhibition at 10 µM: < 5%
MOLT-4, Leukemia MOLT-4, 10 μM
  inhibition at 10 µM: < 5%
Melanoma M14, 10 μM
  inhibition at 10 µM: < 5%
Melanoma MALM-3M, 10 μM
  inhibition at 10 µM: < 5%
NCI-H23, Non-small cell lung cancer NCI-H23, 10 μM
  inhibition at 10 µM: < 5%
NCI-H226, Non-small cell lung cancer NCI-H226, 10 μM
  inhibition at 10 µM: < 5%
NCI-H322M, Non-small cell lung cancer NCI-H322M, 10 μM
  inhibition at 10 µM: < 5%
NCI-H460, Non-small cell lung cancer NCI-H460, 10 μM
  inhibition at 10 µM: < 5%
NCI-H522, Non-small cell lung cancer NCI-H522, 10 μM
  inhibition at 10 µM: < 5%
NCI/ADR-RES, Ovarian cancer NCI/ADR-RES, 10 μM
  inhibition at 10 µM: < 5%
OVCAR-3, Ovarian cancer OVCAR-3, 10 μM
  inhibition at 10 µM: < 5%
OVCAR-4, Ovarian cancer OVCAR-4, 10 μM
  inhibition at 10 µM: < 5%
OVCAR-5, Ovarian cancer OVCAR-5, 10 μM
  inhibition at 10 µM: < 5%
OVCAR-8, Ovarian cancer OVCAR-8, 10 μM
  inhibition at 10 µM: < 5%
Prostate cancer PC-3, 10 μM
  inhibition at 10 µM: < 5%
RPMI-8226, Leukemia RPMI-8226, 10 μM
  inhibition at 10 µM: < 5%
RXF 393, Renal cancer RXF 393, 10 μM
  inhibition at 10 µM: < 5%
SF-268, CNS Cancer SF-268, 10 μM
  inhibition at 10 µM: < 5%
SF-295, CNS Cancer SF-295, 10 μM
  inhibition at 10 µM: < 5%
SF-539, CNS Cancer SF-539, 10 μM
  inhibition at 10 µM: < 5%
SK-MEL-2, Melanoma SK-MEL-2, 10 μM
  inhibition at 10 µM: < 5%
SK-MEL-5, Melanoma SK-MEL-5, 10 μM
  inhibition at 10 µM: < 5%
SK-MEL-28, Melanoma SK-MEL-28, 10 μM
  inhibition at 10 µM: < 5%
SK-OV-3, Ovarian cancer SK-OV-3, 10 μM
  inhibition at 10 µM: < 5%
SN12C, Renal cancer SN12C, 10 μM
  inhibition at 10 µM: < 5%
SNB-19, CNS Cancer SNB-19, 10 μM
  inhibition at 10 µM: < 5%
SNB-75, CNS Cancer SNB-75, 10 μM
  inhibition at 10 µM: < 5%
SW-620, Colon cancer SW-620, 10 μM
  inhibition at 10 µM: < 5%
T47D, Breast cancer T-47D, 10 μM
  inhibition at 10 µM: < 5%
TK-10, Renal cancer TK-10, 10 μM
  inhibition at 10 µM: < 5%
U-251, CNS Cancer U251, 10 μM
  inhibition at 10 µM: < 5%
UACC-62, Melanoma UACC-62, 10 μM
  inhibition at 10 µM: < 5%
UACC-257, Melanoma UACC-257, 10 μM
  inhibition at 10 µM: < 5%
UO-31, Renal cancer UO-31, 10 μM
  inhibition at 10 µM: 22.6%
